Assay results from patent US20200190067A1, “PHOTO-SWITCHABLE CHEMICAL INDUCERS OF DIMERIZATION FOR CONTROL OF PROTEIN FUNCTION IN CELLS BY LIGHT” (Max-Planck-Gesellschaft zur Förderung der Wissenschaften …, priority 2017, published 2020).

Test: UV-Vis absorption spectra
Format: physicochemical
Settings: 50 μM dimerizer in PBS buffer (pH 7.4, 0.5% DMSO)
Protocol: FIG. 1: UV-Vis absorption spectra of TMP—PC—Cl (black) and 4-CmTMP—PC—Cl (red). A solution of 50 μM of the respective dimerizer in PBS buffer (pH 7.4, 0.5% DMSO) was subjected to UV-Vis absorption analysis (FIG. 1). 0.5% DMSO in PBS was used as the blank.
UV-Vis absorption spectra were recorded using SHIMADZU UV-2401PC UV-Vis Recording Spectrophotometer. A solution of 50 μM of the respective dimerizer in PBS buffer (pH 7.4, 0.5% DMSO) was subjected to UV-Vis absorption analysis (FIG. 1). 0.5% DMSO in PBS was used as the blank.

absorption peak: 348.5 nm
SMILES: COc1cc(COC(=O)NCCCOCCOCCOCCCNC(=O)COc2c(OC)cc(Cc3cnc(N)nc3N)cc2OC)c([N+](=O)[O-])cc1OCCOCCOCCOCCOCCOCCCCCCCl [TMP—PC—Cl, 4-((21-Chloro-3,6,9,12,15-pentaoxahenicosyl)oxy)-5-methoxy-2-nitrobenzyl (1-(4-((2,4-diaminopyrimidin-5-yl)methyl)-2,6-dimethoxyphenoxy)-2-oxo-7,10,13-trioxa-3-azahexadecan-16-yl)carbamate]
